Source: patent US9833486B2, “Compositions comprising selenium and use of same for the treatment and prevention of disease or conditions associated with mitochondrial dysfunction” (ALLTECH, INC., priority 2013, dated 2017)
Several values for one entry are separate records, joined by “and”; a condition that tells them apart may be missing. Identical values can stand only once. Entries after “also recorded” stand apart in the source; their conditions may differ. *1 amine or outer side, *2 acyl side, *3 side chain or, on linkers, in order; H or OH if unused. Where a SMILES comes first, the peptide text is derived from it. Bridges are numbered along the chain shown (N, C = ends). Roman numbers before positions name the chains, in order. [ ]: non-standard residue; d: D form. γGlu = O=C(O)[C@H](CCC(=O)[*:2])N[*:1]; Sec = N[C@@H](C[SeH])C(=O)O

Experiments:
mice = test: Expression of oxidative phosphorylation (OXPHOS) molecules in liver; type: in vivo, mouse
Procedure: Utilizing the animal model described in Example 2, experiments were conducted to analyze the expression of molecules that regulate oxidative phosphorylation (OXPHOS) in the liver of subjects administered a composition comprising selenium.

[1] = system: rat brain purified mitochondria; test: Mitochondrial bioenergetics, oxygen consumption rates (Seahorse flux analyzer); type: biochemical; design: key to Trend of effect on mitochondrial bioenergetics: 1: Positive Trend; 2: Positive/Negative trend; 3: Negative Trend; 4: No Change; conditions: for Effect on mitochondrial activity / bioenergetics profile (in words) / STATE III % change / STATE V % change / STATE Vsucc % change: Seahorse; for Effect on mitochondrial activity / bioenergetics profile (in words) / STATE V (State VFCCP, complex I dependent maximum respiratory capacity) / STATE Vsucc (complex II dependent maximum respiratory capacity) / STATE III (OCR, ATP synthesis) / STATE III % change / STATE V % change / STATE Vsucc % change: 500 ppb; for Trend of effect on mitochondrial bioenergetics: Table 7; for STATE V (State VFCCP, complex I dependent maximum respiratory capacity) / STATE Vsucc (complex II dependent maximum respiratory capacity) / STATE III (OCR, ATP synthesis): rat brain purified mitochondria 5 μg/well; for STATE V (State VFCCP, complex I dependent maximum respiratory capacity): CTRL 182.1; for STATE Vsucc (complex II dependent maximum respiratory capacity): CTRL 350.1; for STATE III (OCR, ATP synthesis): CTRL 432.6; for STATE III % change / STATE V % change / STATE Vsucc % change: vs control
Procedure: Mitochondria isolated from rat brain were chosen for this purpose for a number of reasons, including a) the ease with which mitochondria can be isolated from soft tissue, such as brain and b) the fact that brain tissue has a high demand for glucose and oxygen.
Experiments were conducted as follows: a variety of concentrations of selenium containing compounds were tested ranging from low (50 ppb), mid (500 ppb) and high (1 ppm). […] Adult rat brain ficoll purified mitochondria were isolated and incubated with the individual selenium containing compounds for 30 minutes at 37 C prior to being loaded into a Seahorse Biosciences flux analyzer in triplicate. OCR (Oxygen Consumption Rates) parameters were measured in three respiratory states including ATP synthesis (State III), Complex I dependent (NADH-driven) Maximum Respiratory Capacity (State VFCCP) and Complex II (FADH-driven) dependent Maximum Respiratory Capacity (State Vsucc). Sea Horse assay was performed as described (See, e.g., Sauerbeck et al., J Neurosci Methods. 2011 May 15; 198(1): 36-43; Seahorse XF, Seahorse Bioscience Inc).

mitochondria = test: Mitochondrial respiration by oxytherm (Clark-type electrode); type: biochemical, rat; conditions: 60 μg mitochondrial protein, 500 ppb, 30 minutes
Procedure: The bioactivities of selenium containing peptide LVSe-MR (C22H44N7O5Se) (#6) and methylselenoadenosine (C11H15N5O3Se) (#9) were analyzed utilizing oxytherm (Clark-type electrode) (See, e.g., Chance and Williams, J Biol Chem, 1955, 217, 383-393; Sullivan et al., J. Bioenerg. Biomembr. 36, 353-356.). Oxytherm analysis allows the determination of oxygen uptake or evolution measurements across a broad range of applications including mitochondrial and cellular respiration. For this experiment, 60 μg mitochondrial protein was co-incubated with either compound LVSe-MR (C22H44N7O5Se) or methylselenoadenosine (500 ppb) or their corresponding equivalent concentrations of respective controls (LVMR and methylthioadenosine, respectively) for 30 minutes prior to injection into the oxytherm chamber. Mitochondrial activity (measured and presented as the rate of mitochondrial respiration observed as % change in nmols O2/min/mg of mitochondrial protein) was measured in the presence of each compound.

[2] = system: pyruvate dehydrogenase complex (PDHC); test: PDHC enzyme activity in isolated cortical mitochondria; type: biochemical, rat
Procedure: (§1) In order to measure pyruvate dehydrogenase complex (PDHC) activity as well as mitochondrial Complex I activity, cortical mitochondria were isolated from adult SD rats using a ficoll gradient method. Methylselenoadenosine was tested at four concentration ranges (0, 50, 500 and 1000 PPB). All assays were done in triplicate with co-incubation of the individual compounds with mitochondria (60 μg mitochondrial protein/well) in 100 μl assay system using standard techniques in a 96-well fluorescence plate reader.

mitochondrial Complex I = test: Mitochondrial Complex I activity in isolated cortical mitochondria; type: biochemical, rat; conditions: 0, 50, 500, 1000 PPB
Procedure: as §1

Complex IV = Complex IV enzyme activity in isolated cortical mitochondria; type: biochemical, rat; conditions: 0, 50, 500, 1000 PPB
[3] = Oxygen radical absorbance capacity (ORAC) antioxidant assay; conditions: Trolox Equivalents; singly or in combination
Procedure: Briefly, samples of selenium containing compounds (e.g., identified in Example 1) were analyzed using the Trolox assay kit, according to the manufacturer's instructions. Compounds were tested singly or in combination (at concentrations ranging from 0.05 to 5 μM) to examine for potential synergies, antagonisms or purely additive effects.

Row | Compound | Effect on mitochondrial activity / bioenergetics profile (in words) [1] | Trend of effect on mitochondrial bioenergetics [1] | STATE V (State VFCCP, complex I dependent maximum respiratory capacity) [1] | STATE Vsucc (complex II dependent maximum respiratory capacity) [1] | STATE III (OCR, ATP synthesis) [1] | STATE III % change [1] | STATE V % change [1] | STATE Vsucc % change [1] | TE Value [3] [TE] | also measured
1 | C[Se]CC[C@H](N)C(=O)O [selenomethionine] |  |  |  |  |  |  |  |  |  | expression of ATP synthase (mice): significant increase; expression of ATPase inhibitory factor 1 (mice): significantly reduced; expression of ATPase, H+ transporting lysosomal, V1 subunit H (mice): significantly reduced; expression of ATPase, H+ transporting, V1 subunit A (mice): significantly reduced; expression of cytochrome c oxidase, subunit Va (mice): significant increase; regulation of liver specific mitochondrial activity, compared with selenium enriched yeast (mice): significantly less effective
2 | Glutamylselenocysteine dimer [#10] | negative effect | #10^3 | 112.7 | 254.4 | 352.1 | −18.7% | −38.1% | −27.3% |  | decreased ATP synthesis (State III) ([1]; decrease vs control): ~19%
3 | N[C@@H](CCC(=O)O)C(=O)N[C@@H](CS)C(=O)O [#30, Glutamylcysteine, reference compound] (H-Glu-Cys-OH) |  | #30^2 | 153.8 | 305.4 | 423.2 | −2.3% | −15.5% | −12.7% |  | 
4 | N[C@@H](CCC(=O)N[C@@H](C[Se][Se]C[C@H](NC(=O)CC[C@H](N)C(=O)O)C(=O)NCC(=O)O)C(=O)NCC(=O)O)C(=O)O [#8, Selenoglutathione dimer] (I: γGlu-[Sec]-Gly-OH / II: γGlu-[Sec]-Gly-OH; diselenide I:1-II:1) |  | #8^4 | 192.3 | 371.0 | 424.0 | −2.1% | 5.7% | 6.0% |  | 
5 | Methylselenoadenosine [#9] | positive increases in all three states of respiration; also recorded: remarkably increase mitochondrial bioenergetics profiles | #9^1 | 210.3^1 | 437.1^1 | 507.8^1 | 17.3% and 17.3^1% | 15.6% and 15.6^1% | 25% and 24.9^1% | 0.722 | State III increase compared to control (mitochondria): 29.9%; State VFCCP increase compared to control (mitochondria): 17.3%; State Vsucc increase compared to control (mitochondria): 15.3%; PDHC activity (in words) ([2]; 0, 50, 500, 1000 PPB): increased; enhanced PDHC enzyme activity ([2]; 0-1000 PPB, depending upon the concentration, p<0.05 at 1000 PPB): 30-57%; Complex I activity (in words) (mitochondrial Complex I): increased; Complex IV enzyme activity (in words) (Complex IV): No changes
6 | C[Se]CC[C@H](N)C(=O)O [#4, L-Selenomethionine] |  |  |  |  |  |  |  |  | 1.228 | 
